Earlier results as cited in patent US7837990B2, “In vivo expanded NKT cells and methods of use thereof” (The Rockefeller University, priority 2005, dated 2010).

Key:
tumor = settings: mouse models
NKT cells = settings: patients with advanced cancer or healthy volunteers

Compound: CCCCCCCCCCCCCCCCCCCCCCCCCC(=O)N[C@@H](CO[C@H]1O[C@H](CO)[C@H](O)[C@H](O)[C@H]1O)[C@H](O)[C@H](O)CCCCCCCCCCCCCC [KRN-7000, α-galactosyl ceramide]
- anti-tumor effect (tumor): tumor regression in several mouse models
- NKT activation in vivo (NKT cells): transient NKT activation in some individuals
